According to patent US20120088746A1, “AMIDE DERIVATIVES AS ION-CHANNEL LIGANDS AND PHARMACEUTICAL COMPOSITIONS AND METHODS OF USING THE SAME” (PFIZER INC., priority 2006, published 2012):

Target: human VR1 (Homo sapiens, UniProt Q8NER1)
Assay: Acid stimulation assay (acid-induced intracellular calcium change, FDSS 6000)
Assay type: cell-based
Details: final assay buffer pH5.8, 15 min pre-incubation, read-out: IC50 (nM) Low pH
From the text: VR1 antagonistic activity can be determined by the Ca^2+ imaging assay using human VR1 highly expressing cells. The cells that highly express human VR1 receptors are obtainable from several different conventional methods. The one standard method is cloning from human Dorsal Root Ganglion (DRG) or kidney according to the methods such as described in the journal article; Nature, 389, pp 816-824, 1997. Alternatively VR1 receptors highly expressing human keratinocytes are also known and published in the journal article (Biochemical and Biophysical Research Communications, 291, pp 124-129, 2002). […] Furthermore, the method to up regulate human VR1 gene, which is usually a silent gene or don't produce detectable level of VR1 receptors, is also available to obtain propriety cells. Such genetic modification method was described in detail; Nat. Biotechnol., 19, pp 440-445, 2001.
The cells that express human VR1 receptors were maintained in culture flask at 37° C. in an environment containing 5% CO2 until use in the assay. The intracellular Ca^2+ imaging assay to determine VR1 antagonistic activities were done by following procedures.
The culture medium was removed from the flask and fura-2/AM fluorescent calcium indicator was added to the flask at a concentration of 5 μM in the medium. The flask was placed in CO2 incubator and incubated for 1 hour. Then the cells expressing the human VR1 receptors were detached from the flask follow by washing with phosphate buffer saline, PBS(−) and re-suspended in assay buffer. The 80 tit of aliquot of cell suspension (3.75×10^5 cells/ml) was added to the assay plate and the cells were spun down by centrifuge (950 rpm, 20° C., 3 minutes).
(§1) The Acid-induced changes in the intracellular calcium concentration were monitored using FDSS 6000 (Hamamatsu Photonics, Japan), a fluorometric imaging system. The cell suspension in resting buffer (HBSS supplemented with 10 mM HEPES, pH 7.4) were pre-incubated with varying concentrations of the test compounds or resting buffer (buffer control) for 15 minutes at room temperature under the dark condition. The cells were automatically added the stimulating solution (HBSS supplemented with MES, final assay buffer pH5.8) by the FDSS 6000.
as §1, with “7.4) was” for “7.4) were”, “under” for “under the”, “dark conditions.” for “dark condition.”, “added to” for “added”

Chain of human VR1 (Q8NER1 whole entry): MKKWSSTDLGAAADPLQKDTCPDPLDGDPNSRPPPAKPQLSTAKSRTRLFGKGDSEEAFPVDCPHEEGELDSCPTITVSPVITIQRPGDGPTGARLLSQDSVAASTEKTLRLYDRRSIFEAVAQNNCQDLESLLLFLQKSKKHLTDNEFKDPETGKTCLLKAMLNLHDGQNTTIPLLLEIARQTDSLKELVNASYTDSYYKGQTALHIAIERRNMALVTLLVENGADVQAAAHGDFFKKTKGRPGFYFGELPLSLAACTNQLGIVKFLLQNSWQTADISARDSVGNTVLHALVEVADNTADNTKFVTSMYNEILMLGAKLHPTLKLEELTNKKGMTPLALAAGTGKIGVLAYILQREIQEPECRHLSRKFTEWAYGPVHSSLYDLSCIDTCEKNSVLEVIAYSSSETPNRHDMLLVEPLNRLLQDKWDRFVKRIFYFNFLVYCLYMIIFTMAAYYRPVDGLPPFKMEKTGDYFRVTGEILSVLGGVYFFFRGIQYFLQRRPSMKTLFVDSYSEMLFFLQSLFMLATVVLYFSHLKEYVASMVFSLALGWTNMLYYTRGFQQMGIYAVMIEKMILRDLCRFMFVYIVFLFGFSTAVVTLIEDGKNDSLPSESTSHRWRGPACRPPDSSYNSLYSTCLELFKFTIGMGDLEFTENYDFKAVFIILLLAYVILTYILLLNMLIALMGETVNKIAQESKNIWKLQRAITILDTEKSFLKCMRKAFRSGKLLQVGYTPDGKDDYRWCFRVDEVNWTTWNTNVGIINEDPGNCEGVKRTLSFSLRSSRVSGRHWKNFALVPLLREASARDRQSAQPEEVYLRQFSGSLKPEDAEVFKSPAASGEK

| Structure (SMILES) | IC50 [nM] |
| --- | --- |
| C[C@@H](NC(=O)c1cnc2cc(C(F)(F)F)ccc2c1)c1cc(F)c(NS(C)(=O)=O)c(F)c1 [Example 27, N-((1R)-1-{3,5-DIFLUORO-4-[(METHYLSULFONYL)AMINO]PHENYL}ETHYL)-7-(TRIFLUOROMETHYL)QUINOLINE-3-CARBOXAMIDE] | 105 |
| Cc1cc([C@@H](C)NC(=O)c2ccc3cc(C4CC4)ccc3c2)ccc1NS(C)(=O)=O [Example 22, 6-CYCLOPROPYLNAPHTHALENE-2-CARBOXYLIC ACID [(R)-1-(4-METHANESULFONYL-AMINO-3-METHYLPHENYL)ETHYL]AMIDE] | 3 |
| Cc1cc([C@@H](C)NC(=O)c2ccc3nc(C(C)C)ccc3c2)ccc1NS(C)(=O)=O [Example 35, 2-ISOPROPYL-N-((1R)-1-{3-METHYL-4-[(METHYLSULFONYL)AMINO]PHENYL}ETHYL)-QUINOLINE-6-CARBOXAMIDE] | 5 |
| Cc1nc([C@@H](C)NC(=O)c2ccc3cc(C(C)(C)C)ccc3c2)ccc1NS(C)(=O)=O [Example 2, 6-TERT-BUTYL-N-((1R)-1-{6-METHYL-5-[(METHYLSULFONYL)AMINO]PYRIDIN-2-YL}ETHYL)-2-NAPHTHAMIDE] | 4 |
| Cc1cc([C@@H](C)NC(=O)c2cnc3cc(C(C)(C)C)ccc3c2C)ccc1NS(C)(=O)=O [Example 42, 7-TERT-BUTYL-4-METHYL-N-((1R)-1-{3-METHYL-4-[(METHYLSULFONYL)AMINO]PHENYL}-ETHYL)QUINOLINE-3-CARBOXAMIDE] | 532 |
| Cc1cc([C@@H](C)NC(=O)c2ccc3cc(C(C)C)ccc3n2)ccc1NS(C)(=O)=O [Example 9, 6-ISOPROPYL-N-((1R)-1-{3-METHYL-4-[(METHYLSULFONYL)AMINO]PHENYL}ETHYL)-QUINOLINE-2-CARBOXAMIDE] | 714 |
| Cc1cc([C@@H](C)NC(=O)c2ccc3cc(C(F)(F)F)ccc3n2)c(Cl)cc1NS(C)(=O)=O [Example 57, (R)—N-(1-(2-CHLORO-5-METHYL-4-(METHYLSULFONAMIDO)PHENYL)ETHYL)-6-(TRIFLUOROMETHYL)QUINOLINE-2-CARBOXAMIDE] | 58 |
| Cc1cc([C@@H](C)NC(=O)c2ccc3cc(Br)ccc3n2)ccc1NS(C)(=O)=O [Example 12, 6-BROMO-N-((1R)-1-{3-METHYL-4-[(METHYLSULFONYL)AMINO]PHENYL}ETHYL)-QUINOLINE-2-CARBOXAMIDE] | 444 |
| C[C@@H](NC(=O)c1ccc2cc(C(C)(C)C)ccc2n1)c1cc(F)c(NS(C)(=O)=O)c(F)c1 [Example 7, 6-TERT-BUTYL-N-((1R)-1-{3,5-DIFLUORO-4-[(METHYLSULFONYL)AMINO]PHENYL}-ETHYL)QUINOLINE-2-CARBOXAMIDE] | 1 |
| C[C@@H](NC(=O)c1cnc2cc(C(C)(C)C)ccc2c1)c1ccc(NS(C)(=O)=O)cc1 [Example 41, 7-TERT-BUTYL-N-((1R)-1-{4-[(METHYLSULFONYL)AMINO]PHENYL}ETHYL)QUINOLINE-3-CARBOXAMIDE] | 29 |
| COc1ccc2cc(C(=O)N[C@H](C)c3ccc(NS(C)(=O)=O)c(C)c3)ccc2c1 [Example 20, 6-METHOXYNAPHTHALENE-2-CARBOXYLIC ACID [(R)-1-(4-METHANESULFONYL-AMINO-3-METHYLPHENYL)ETHYL]AMIDE] | 8 |
| Cc1cc([C@@H](C)NC(=O)c2ccc3cc(C(F)(F)F)ccc3c2)ncc1NS(C)(=O)=O [Example 54, N-((1R)-1-{4-METHYL-5-[(METHYLSULFONYL)AMINO]PYRIDIN-2-YL}ETHYL)-6-(TRIFLUOROMETHYL)-2-NAPHTHAMIDE] | 12 |
| Cc1cc([C@@H](C)NC(=O)c2ccc3cc(C(C)(C)C)ccc3c2)ccc1NS(C)(=O)=O [Example 1, 6-TERT-BUTYL-N-((1R)-1-{3-METHYL-4-[(METHYLSULFONYL)AMINO]PHENYL}ETHYL)-2-NAPHTHAMIDE] | 3 |
| Cc1cc([C@@H](C)NC(=O)c2cnc3cc(C(F)(F)F)ccc3c2)ccc1NS(C)(=O)=O [Example 4, (1R)-1-{3-METHYL-4-[(METHYLSULFONYL)AMINO]PHENYL}ETHYL)-7-(TRIFLUOROMETHYL)QUINOLINE-3-CARBOXAMIDE] | 100 |
| CC(=O)c1ccc2nc(C(=O)N[C@H](C)c3ccc(NS(C)(=O)=O)c(C)c3)ccc2c1 [Example 28, 6-ACETYL-N-((1R)-1-{3-METHYL-4-[(METHYLSULFONYL)AMINO]PHENYL}ETHYL)-QUINOLINE-2-CARBOXAMIDE] | 187 |

The remaining lines, values ahead:

| IC50 [nM] | Structure (SMILES) |
| --- | --- |
| 50 | COc1ccccc1N1CCN(c2nc(C(F)(F)F)nc3ccc(C(=O)N[C@H](C)c4cc(C)c(NS(C)(=O)=O)cc4F)cc23)CC1 [Example 88, 4-[4-(2-METHOXY-PHENYL)-PIPERAZIN-1-YL]-2-TRIFLUOROMETHYL-QUINAZOLINE-6-CARBOXYLIC ACID [(R)-1-(2-FLUORO-4-METHANESULFONYLAMINO-5-METHYL-PHENYL)-ETHYL]-AMIDE] |
| 6 | Cc1cc([C@@H](C)NC(=O)c2ccc3nc(C(F)(F)F)ccc3c2)c(F)cc1NS(C)(=O)=O [Example 32, N-((1R)-1-{2-FLUORO-5-METHYL-4-[(METHYLSULFONYL)AMINO]PHENYL}ETHYL)-2-(TRIFLUOROMETHYL)QUINOLINE-6-CARBOXAMIDE] |
| 35 | Cc1cc([C@@H](C)NC(=O)c2ccc3nc(C(F)(F)F)cc(OC4CCOCC4)c3c2)c(F)cc1NS(C)(=O)=O [Example 94, 4-(TETRAHYDRO-PYRAN-4-YLOXY)-2-TRIFLUOROMETHYL-QUINOLINE-6CARBOXYLIC ACID [(R)-1-(2-FLUORO-4-METHANESULFONYLAMINO-5-METHYL-PHENYL)-ETHYL]-AMIDE] |
| 337 | COC1CCN(c2ccc3cc(C(=O)N[C@H](C)c4cc(C)c(NS(C)(=O)=O)cc4F)ccc3n2)CC1 [Example 107] |
| 24 | Cc1cc([C@@H](C)NC(=O)c2ccc3nc(C(F)(F)F)cc(N4CC(F)(F)C4)c3c2)c(F)cc1NS(C)(=O)=O [Example 92, 4-(3,3-DIFLUOROAZETIDIN-1-YL)-2-TRIFLUOROMETHYLQUINOLINE-6-CARBOXYLIC ACID [(R)-1-(2-FLUORO-4-METHANESULFONYLAMINO-5-METHYLPHENYL)-ETHYL]AMIDE] |
| 30 | Cc1cc([C@@H](C)NC(=O)c2cnc3cc(C(F)(F)F)ccc3c2)c(F)cc1NS(C)(=O)=O [Example 43, N-((1R)-1-{2-FLUORO-5-METHYL-4-[(METHYLSULFONYL)AMINO]PHENYL}ETHYL)-7-(TRIFLUOROMETHYL)QUINOLINE-3-CARBOXAMIDE] |
| 29 | Cc1cc([C@@H](C)NC(=O)c2ccc3nc(C(F)(F)F)cc(N4CCC(F)(F)CC4)c3c2)c(F)cc1NS(C)(=O)=O [Example 73, 4-(4,4-DIFLUORO-PIPERIDIN-1-YL)-2-TRIFLUOROMETHYL-QUINOLINE-6-CARBOXYLIC ACID [(R)-1-(2-FLUORO-4-METHANESULFONYLAMINO-5-METHYL-PHENYL)-ETHYL]-AMIDE] |
| 293 | Cc1cc([C@@H](C)NC(=O)c2ccc3nc(N4CCCC4)ccc3c2)c(F)cc1NS(C)(=O)=O [Example 68, (R)—N-(1-(2-FLUORO-5-METHYL-4-(METHYLSULFONAMIDO)PHENYL)ETHYL)-2-(PYRROLIDIN-1-YL)QUINOLINE-6-CARBOXAMIDE] |
| 748 | Cc1cc([C@@H](C)NC(=O)c2ccc3nc(N4CCOCC4)ccc3c2)c(F)cc1NS(C)(=O)=O [Example 81, ((R)—N-(1-(2-FLUORO-5-METHYL-4-(METHYLSULFONAMIDO)PHENYL)ETHYL)-2-MORPHOLINOQUINOLINE-6-CARBOXAMIDE] |
| 60 | Cc1cc([C@@H](C)NC(=O)c2ccc3nc(C(F)(F)F)nc(N4CCN(c5cccc(Cl)c5)CC4)c3c2)c(F)cc1NS(C)(=O)=O [Example 85, 4-[4-(3-CHLORO-PHENYL)-PIPERAZIN-1-YL]-2-TRIFLUOROMETHYL-QUINAZOLINE-6-CARBOXYLIC ACID [(R)-1-(2-FLUORO-4-METHANESULFONYLAMINO-5-METHYL-PHENYL)-ETHYL]-AMIDE] |
| 7 | Cc1cc([C@@H](C)NC(=O)c2ccc3nc(C(F)(F)F)nc(N4CC(C)OC(C)C4)c3c2)c(F)cc1NS(C)(=O)=O (stereo partly drawn) [Example 86, 4-(2,6-DIMETHYL-MORPHOLIN-4-YL)-2-TRIFLUOROMETHYL-QUINAZOLINE-6-CARBOXYLIC ACID [(R)-1-(2-FLUORO-4-METHANESULFONYLAMINO-5-METHYL-PHENYL)-ETHYL]-AMIDE] |
| 41 | Cc1cc([C@@H](C)NC(=O)c2ccc3nc(C(F)(F)F)cc(NC4CCCCC4)c3c2)c(F)cc1NS(C)(=O)=O [Example 97, 4-CYCLOHEXYLAMINO-2-TRIFLUOROMETHYLQUINOLINE-6-CARBOXYLIC ACID [(R)-1-(2-FLUORO-4-METHANESULFONYLAMINO-5-METHYLPHENYL)ETHYL]AMIDE] |
